This test relates to SMN2 mRNA. Briefly: RT-qPCR of SMN2FL and SMN2 Δ7 mRNA in brain, liver and spinal cord of SMA type III mice. Type of test: in vivo, mouse. The method, then: The combinatory effect of LNP-R6-04M1 with LNP-ASO-10-27 or with Risdiplam were in evaluated in vivo, in SMA type IU mice. Neonatal mice were divided into 10 treatment groups: • Treatment Group 1: administration of LNP-R6-04M1 via ICV injection (injected twice on P1 and P3 respectively, each with 10 ug of LNP-R6-04M1); • Treatment Group 2: administration of LNP-ASO-10-27 via ICV injection (injected twice on P1 and P3 respectively, each with 10 ug of LNP-ASO-10-27); • Treatment Group 3: administration of Risdiplam via IP injection on P1 at a concentration of 0.3 mg/kg; • Treatment Group 4: administration of Risdiplam via IP injection on P1 at a concentration of 1 mg/kg; • Treatment Group 5: administration of Risdiplam via IP injection on P1 at a concentration of 3 mg/kg; • Treatment Group 6: combinatory treatment via administration of LNP-R6-04M1 and LNP-ASO-10-27. LNP-R6-04M1 was administered via ICV injection on P1 (10 ug), while LNP-ASO-10-27 was administered via ICV injection on P3 (10 ug); • Treatment Group 7: combinatory treatment via administration of LNP-ASO-10-27 and LNP-R6-04M1. LNP-ASO-10-27 was administered via ICV injection on P1 (10 ug), while LNP-R6-04M1 was administered via ICV injection on P3 (10 ug); • Treatment Group 8: combinatory treatment of LNP-R6-04M1 and Risdiplam. LNP-R6-04M1 was injected on P1 (10 ug) via ICV injection, and Risdiplam was injected via IP injection on P3 at a concentration of 0.3 mg/kg; • Treatment Group 9: combinatory treatment of LNP-R6-04M1 and Risdiplam. LNP-R6-04M1 was injected on P1 (10 ug) via ICV injection, and Risdiplam was injected via IP injection on P3 at a concentration of 1 mg/kg;
The SMA type LII mice were treated saline twice on P1 (5 μL) and P3(5 μL) via subcutaneous (SC) injection. P1 and P3 means postnatal day 1 and day3;
Treatment Group 10: treatment of mice with saline SMN2FL and SMN2 Δ7 mRNA levels were quantified by RT-qPCR in tissues of the brain, liver and spinal cord.
For RNA isolation from cultured cells, total cellular RNA was isolated from treated cells using an RNeasy Plus Mini kit (Qiagen, Hilden, Germany) according to its manual. To isolated RNA from animal tissues, tissues were harvested and stored at RNA later (AM7021, Thermo Fisher). Total RNA was then isolated using MagPure Total RNA Micro LQ kit (Magen, R6621, China) by auto-pure96 machine (ALLSHENG, China). The resultant RNA (1 μg) was reverse transcribed into cDNA by using a PrimeScript RT kit containing gDNA Eraser (Takara, Shlga, Japan). The resultant cDNA was amplified in an ABI 7500 Fast Real-time PCR System (Applied Biosystems; Foster City, Calif.) using SYBR Premix Ex Taq 11 (Takara, Shlga, Japan) reagents and primers which specifically amplified full-length (SMN2FL) or A7 SMN2 mRNA (SMN2 Δ7) (FIG. 1). The reaction conditions were: 95° C. for 3 seconds (1 cycle) and 60° C. for 30 seconds (40 cycles). Amplification of TBP gene served as an internal control.
All animal procedures were conducted by certified laboratory personnel using protocols consistent with local and state regulations and approved by the Institutional Animal Care and Use Committee. SMA-like mice created by homozygous knock-out of mouse Smn exon 7 with transgene of human SMN2 (Smn−/−SMN2+/−) as previously described Hsieh-Li et al. (Hsieh-Li, H. M., et al. A mouse model for spinal muscular atrophy. Nature Genet (2000) were obtained from Jackson Laboratories. Tail snips were gathered at postnatal day 0 (P0), and each pup was identified by paw tattooing and genotyped by PCR analysis using a set of 3 specific primers: S1, 5′-[…]-3′, and S2, 5′-[…]-3′ (1,150 bp band for wild type alleles) and S1 and H1, 5′-[…]-3′ (950 bp band for mutant alleles). The PCR products were detected by 1% agarose gel. Severe SMA mice (Smn^−/−, SMN^+/0) were generated. Littermates heterozygous for mouse Smn (Smn1^+/−, SMN2^+/−) were used as controls. […]
(Quantitative PCR measures a nucleic acid by following its amplification.)

Where [1] appears, read: brain, IP on P1, 0.3 mg/kg (Treatment Group 3).
[2] abbreviates: brain, IP on P1, 1 mg/kg (Treatment Group 4).
[3] abbreviates: brain, IP on P1, 3 mg/kg (Treatment Group 5).
Where [4] appears, read: liver, IP on P1, 0.3 mg/kg (Treatment Group 3).
Setting [5] is: liver, IP on P1, 1 mg/kg (Treatment Group 4).
Where [6] appears, read: liver, IP on P1, 3 mg/kg (Treatment Group 5).

This is an account of results in US20230287416A1, “COMBINATORY TREATMENT OF SMA WITH SARNA AND MRNA MODULATORS” (RACTIGEN THERAPEUTICS, priority 2020, published 2023).

`Cc1cn2nc(-c3cc(=O)n4cc(N5CCNC6(CC6)C5)ccc4n3)cc(C)c2n1` [Risdiplam]: the “SMN2FL mRNA expression, fold relative to control” value is given as 1.1 fold under setting [1]; 1.3 fold under setting [2]; 1.0 fold under setting [3]; 1.1 fold under setting [4]; 1.5 fold under setting [5]; 1.0 fold under setting [6]. In addition, the “SMN2 Δ7 mRNA expression, fold relative to control” value under setting [1] stood at 1.0 fold; the “SMN2 Δ7 mRNA expression, fold relative to control” value under setting [2] stood at 1.0 fold; the “SMN2 Δ7 mRNA expression, fold relative to control” value under setting [3] is 1.0 fold; the “SMN2 Δ7 mRNA expression, fold relative to control” value under setting [4] is 1.0 fold; the “SMN2 Δ7 mRNA expression, fold relative to control” value under setting [5] is 0.9 fold; the “SMN2 Δ7 mRNA expression, fold relative to control” value under setting [6] is on record as 1.0 fold.
